The text below walks through data of ChEMBL document CHEMBL5579821, “Non-kinase off-target inhibitory activities of clinically-relevant kinase inhibitors” (Eur J Med Chem, 2024).

A short description of data set [1]: cells. The note with it: Homo sapiens, NIH3T3.
Data set [2] in a line: clinical. The note with it: human, plasma.
Data set [3] in a line: clinical. The settings on record: human, in vivo, po, 50 mg.
Data set [4] can be described thus: clinical. The note with it: human, 300 mg.
A short description of data set [5]: clinical. The settings on record: human, plasma, 5 mg.
For data set [6], the target named is T1, Aldo-keto reductase family 1 member C3 (Homo sapiens, UniProt P42330).
T1 sequence (P42330 whole entry): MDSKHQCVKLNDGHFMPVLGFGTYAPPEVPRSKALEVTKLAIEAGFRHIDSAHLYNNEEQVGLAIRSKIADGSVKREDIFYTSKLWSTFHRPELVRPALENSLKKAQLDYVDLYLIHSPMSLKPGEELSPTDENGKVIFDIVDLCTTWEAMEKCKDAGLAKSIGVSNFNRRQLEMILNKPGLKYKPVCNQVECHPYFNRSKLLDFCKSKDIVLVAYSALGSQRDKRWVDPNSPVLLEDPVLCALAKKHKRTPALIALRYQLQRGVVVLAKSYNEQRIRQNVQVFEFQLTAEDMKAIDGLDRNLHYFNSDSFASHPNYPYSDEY

The target of data set [7] is T2, Adenosine receptor A3 (Homo sapiens, UniProt P0DMS8).
T2 sequence (P0DMS8 whole entry): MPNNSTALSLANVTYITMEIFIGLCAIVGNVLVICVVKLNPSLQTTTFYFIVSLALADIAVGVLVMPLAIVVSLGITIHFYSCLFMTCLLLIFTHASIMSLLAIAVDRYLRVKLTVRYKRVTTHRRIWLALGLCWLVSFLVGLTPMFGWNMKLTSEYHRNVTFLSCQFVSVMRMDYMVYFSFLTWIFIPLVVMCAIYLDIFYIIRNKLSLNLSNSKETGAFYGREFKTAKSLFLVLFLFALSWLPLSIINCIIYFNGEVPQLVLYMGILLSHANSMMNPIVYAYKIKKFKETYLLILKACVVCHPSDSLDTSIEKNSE

The target in data set [8] is Proto-oncogene tyrosine-protein kinase receptor Ret (Homo sapiens, UniProt P07949).
Chain of Proto-oncogene tyrosine-protein kinase receptor Ret (P07949 whole entry): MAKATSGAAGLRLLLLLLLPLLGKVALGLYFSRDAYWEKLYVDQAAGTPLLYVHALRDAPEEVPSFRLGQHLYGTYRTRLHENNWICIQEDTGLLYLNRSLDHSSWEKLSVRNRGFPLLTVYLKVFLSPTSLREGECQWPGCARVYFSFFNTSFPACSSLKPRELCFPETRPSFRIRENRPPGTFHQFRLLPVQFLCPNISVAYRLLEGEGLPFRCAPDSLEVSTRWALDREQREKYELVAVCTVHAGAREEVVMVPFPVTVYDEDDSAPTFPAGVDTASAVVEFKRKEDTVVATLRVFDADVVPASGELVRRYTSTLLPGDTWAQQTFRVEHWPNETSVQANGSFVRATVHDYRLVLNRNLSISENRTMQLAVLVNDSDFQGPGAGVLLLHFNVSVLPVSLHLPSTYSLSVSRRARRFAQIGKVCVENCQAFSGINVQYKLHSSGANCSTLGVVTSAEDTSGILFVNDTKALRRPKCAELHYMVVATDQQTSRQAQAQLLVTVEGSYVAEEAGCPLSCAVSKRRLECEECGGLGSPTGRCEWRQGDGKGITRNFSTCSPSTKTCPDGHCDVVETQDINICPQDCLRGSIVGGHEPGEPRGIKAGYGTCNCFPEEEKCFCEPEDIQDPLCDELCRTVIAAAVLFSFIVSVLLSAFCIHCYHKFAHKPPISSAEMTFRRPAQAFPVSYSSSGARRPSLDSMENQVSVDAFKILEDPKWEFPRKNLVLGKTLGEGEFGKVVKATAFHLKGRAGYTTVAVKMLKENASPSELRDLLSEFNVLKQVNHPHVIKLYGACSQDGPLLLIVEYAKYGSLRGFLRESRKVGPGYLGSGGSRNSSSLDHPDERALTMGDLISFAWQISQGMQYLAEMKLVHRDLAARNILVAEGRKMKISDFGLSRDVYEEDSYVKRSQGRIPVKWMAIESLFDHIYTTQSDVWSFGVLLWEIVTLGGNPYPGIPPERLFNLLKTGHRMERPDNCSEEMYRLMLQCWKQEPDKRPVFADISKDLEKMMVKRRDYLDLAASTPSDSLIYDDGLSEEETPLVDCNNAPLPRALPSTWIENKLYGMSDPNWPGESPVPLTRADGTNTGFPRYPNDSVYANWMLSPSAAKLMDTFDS

`Cc1cn(-c2cc(NC(=O)c3ccc(C)c(Nc4nccc(-c5cccnc5)n4)c3)cc(C(F)(F)F)c2)cn1` [NILOTINIB] had an IC50 in data set [1] of 374 nM. The same compound gave a Cmax in data set [2] of 1640 ng/mL.

In data set [3], `CO[C@@H]1[C@H](N(C)C(=O)c2ccccc2)C[C@H]2O[C@]1(C)n1c3ccccc3c3c4c(c5c6ccccc6n2c5c31)C(=O)NC4` [MIDOSTAURIN] displayed a Cmax at 192 h of 1600 ng/mL.

Regarding `Cc1cnc(Nc2ccc(OCCN3CCCC3)cc2)nc1Nc1cccc(S(=O)(=O)NC(C)(C)C)c1` [FEDRATINIB], the Cmax in data set [4] turned out to be 971 ng/mL.

Regarding `CNC(=O)c1ccccc1Sc1ccc2c(/C=C/c3ccccn3)n[nH]c2c1` [AXITINIB], the highest level in data set [5] (Cmax) was 27.8 ng/mL.

Turning to `CCc1cnn2c(NCc3ccc[n+]([O-])c3)cc(N3CCCC[C@H]3CCO)nc12` [DINACICLIB], the affinity in data set [6], expressed as Kd, was 69 nM.

In turn, `COc1cc(Nc2ncc(F)c(Nc3ccc4c(n3)NC(=O)C(C)(C)O4)n2)cc(OC)c1OC` gave an IC50 in data set [7] of 18 nM.

In turn, `CCCS(=O)(=O)Nc1ccc(F)c(C(=O)c2c[nH]c3ncc(-c4ccc(Cl)cc4)cc23)c1F` [VEMURAFENIB] showed an IC50 in data set [8] of 4.8 nM.

In general, IC50 refers to the concentration that gives 50% inhibition. Low values mean higher potency, high ones lower potency. What is called Cmax is the highest concentration seen after dosing. The term Kd denotes the equilibrium constant for the complex coming apart. A low value points to a tighter complex.
